Measurements from ChEMBL document CHEMBL5518176, “Identification of novel aminopyrimidine derivatives for the treatment of mutant NSCLC” (Eur J Med Chem, 2024).
pIC50: −log10 of the molar value. Active and inactive are the calls of the source. No cut-off for these calls is given here.

Legend:
A549 = test: Antiproliferative activity against human A549 cells assessed as inhibition of cell growth incubated for 72 hrs by MTT assay; assay type: functional, cell-based; conditions: A549, 72 h
BaF3 [1] = test: Antiproliferative activity against mouse BaF3 cells harboring EGFR L858R/T790M/C797S triple mutant assessed as inhibition of cell growth incubated for 72 hrs by CellTiter-Glo luminescent assay; assay type: functional, cell-based; conditions: BaF3, 72 h
NCI-H1975 [2] = test: Antiproliferative activity against human NCI-H1975 cells harboring EGFR L858R/T790M/C797S triple mutant assessed as inhibition of cell growth incubated for 72 hrs by CellTiter-Glo luminescent assay; assay type: functional, cell-based; conditions: NCI-H1975, 72 h
BaF3 [3] = test: Antiproliferative activity against mouse BaF3 cells harboring EGFR Del19/T790M/C797S triple mutant assessed as inhibition of cell growth incubated for 72 hrs by CellTiter-Glo luminescent assay; assay type: functional, cell-based; conditions: BaF3, 72 h
NCI-H1975 [4] = test: Antiproliferative activity against human NCI-H1975 cells harboring EGFR L858R/T790M double mutant assessed as inhibition of cell growth incubated for 72 hrs by MTT assay; assay type: functional, cell-based; conditions: NCI-H1975, 72 h
NCI-H1975 [5] = test: Induction of apoptosis in human NCI-H1975 cells harboring EGFR L858R/T790M/C797S triple mutant assessed as early apoptotic cells at 0.8 uM incubated for 48 hrs by Annexin V-FITC/PI staining based flow cytometric analysis (reference value: 0.39 %); assay type: functional
NCI-H1975 [6] = test: Induction of apoptosis in human NCI-H1975 cells harboring EGFR L858R/T790M/C797S triple mutant assessed as early apoptotic cells at 0.4 uM incubated for 48 hrs by Annexin V-FITC/PI staining based flow cytometric analysis (reference value: 0.39 %); assay type: functional
NCI-H1975 [7] = test: Induction of apoptosis in human NCI-H1975 cells harboring EGFR L858R/T790M/C797S triple mutant assessed as viable cells at 0.4 uM incubated for 48 hrs by Annexin V-FITC/PI staining based flow cytometric analysis (reference value: 98.3 %); assay type: functional; conditions: read-out: Activity
NCI-H1975 [8] = test: Induction of apoptosis in human NCI-H1975 cells harboring EGFR L858R/T790M/C797S triple mutant assessed as late apoptotic cells at 1.5 uM incubated for 48 hrs by Annexin V-FITC/PI staining based flow cytometric analysis (reference value: 0.89 %); assay type: functional
NCI-H1975 [9] = test: Induction of apoptosis in human NCI-H1975 cells harboring EGFR L858R/T790M/C797S triple mutant assessed as necrotic cells at 0.8 uM incubated for 48 hrs by Annexin V-FITC/PI staining based flow cytometric analysis (reference value: 0.42 %); assay type: functional
NCI-H1975 [10] = test: Induction of cell cycle arrest in human NCI-H1975 cells harboring EGFR L858R/T790M/C797S triple mutant at 0.4 to 1.5 uM incubated for 48 hrs by flow cytometric analysis; assay type: functional, cell-based; conditions: dose 0.4-1.5 µM
NCI-H1975 [11] = test: Induction of apoptosis in human NCI-H1975 cells harboring EGFR L858R/T790M/C797S triple mutant assessed as viable cells at 1.5 uM incubated for 48 hrs by Annexin V-FITC/PI staining based flow cytometric analysis (reference value: 98.3 %); assay type: functional; conditions: read-out: Activity
BaF3 [12] = test: Antiproliferative activity against mouse BaF3 cells harboring wildtype EGFR assessed as inhibition of cell growth incubated for 72 hrs by CellTiter-Glo luminescent assay; assay type: functional, cell-based; conditions: BaF3, 72 h
NCI-H1975 [13] = test: Induction of apoptosis in human NCI-H1975 cells harboring EGFR L858R/T790M/C797S triple mutant assessed as viable cells at 0.8 uM incubated for 48 hrs by Annexin V-FITC/PI staining based flow cytometric analysis (reference value: 98.3 %); assay type: functional; conditions: read-out: Activity
NCI-H1975 [14] = test: Induction of apoptosis in human NCI-H1975 cells harboring EGFR L858R/T790M/C797S triple mutant assessed as late apoptotic cells at 0.8 uM incubated for 48 hrs by Annexin V-FITC/PI staining based flow cytometric analysis (reference value: 0.89 %); assay type: functional
NCI-H1975 [15] = test: Induction of apoptosis in human NCI-H1975 cells harboring EGFR L858R/T790M/C797S triple mutant assessed as late apoptotic cells at 0.4 uM incubated for 48 hrs by Annexin V-FITC/PI staining based flow cytometric analysis (reference value: 0.89 %); assay type: functional
[16] = Antiproliferative activity against human BEAS-2B cells assessed as inhibition of cell growth; assay type: toxicity, cell-based
NCI-H1975 [17] = test: Induction of apoptosis in human NCI-H1975 cells harboring EGFR L858R/T790M/C797S triple mutant assessed as necrotic cells at 1.5 uM incubated for 48 hrs by Annexin V-FITC/PI staining based flow cytometric analysis (reference value: 0.42 %); assay type: functional
NCI-H1975 [18] = test: Induction of apoptosis in human NCI-H1975 cells harboring EGFR L858R/T790M/C797S triple mutant assessed as necrotic cells at 0.4 uM incubated for 48 hrs by Annexin V-FITC/PI staining based flow cytometric analysis (reference value: 0.42 %); assay type: functional
NCI-H1975 [19] = test: Induction of apoptosis in human NCI-H1975 cells harboring EGFR L858R/T790M/C797S triple mutant assessed as early apoptotic cells at 1.5 uM incubated for 48 hrs by Annexin V-FITC/PI staining based flow cytometric analysis (reference value: 0.39 %); assay type: functional
NCI-H1975 [20] = test: Antiproliferative activity against human NCI-H1975 cells harboring EGFR L858R/T790M/C797S triple mutant assessed as inhibition of cell growth incubated for 72 hrs in presence of osimertinib by CellTiter-Glo luminescent assay; assay type: functional, cell-based; conditions: NCI-H1975, 72 h

| Structure (SMILES) | pIC50 (A549) | pIC50 (BaF3 [1]) | pIC50 (NCI-H1975 [2]) | pIC50 (BaF3 [3]) | pIC50 (NCI-H1975 [4]) | further results |
| --- | --- | --- | --- | --- | --- | --- |
| Nc1nccc(Nc2ccc(NC(=O)C(c3ccccc3)N3Cc4cc(-c5ccc(N6CCNCC6)cc5)ccc4C3=O)cc2Cl)n1 (configuration not stated) | 5.38 | 5.84 | 5.81 | 6.07 | 5.48 | – |
| Nc1cc(Nc2ccc(NC(=O)C(c3ccccc3)N3Cc4ccccc4C3=O)cc2)ncn1 (configuration not stated) | < 4.70 | < 5.00 | < 5.00 | < 5.00 | < 4.70 | – |
| Nc1nccc(Nc2ccc(NC(=O)C(c3ccccc3)N3Cc4cc(-c5ccc(N6CCCCC6)cc5)ccc4C3=O)cc2)n1 (racemic) | < 4.70 | 5.68 | – | 5.59 | < 4.70 | – |
| CN1CCN(c2ccc(-c3ccc4c(c3)CN([C@@H](C(=O)Nc3ccc(Nc5ccnc(N)n5)cc3)c3ccccc3)C4=O)cc2)CC1 | 5.29 | 6.38 | 6.09 | 6.39 | 5.53 | Activity (NCI-H1975 [5]): 1.45%; Activity (NCI-H1975 [6]): 0.59%; viability at 0.4 µM (NCI-H1975 [7]): 97.3%; Activity (NCI-H1975 [8]): 12.15%; Activity (NCI-H1975 [9]): 0.69%; Activity (NCI-H1975 [10]): inactive; viability at 1.5 µM (NCI-H1975 [11]): 85.3%; pIC50 (BaF3 [12]): 6.39; viability at 0.8 µM (NCI-H1975 [13]): 86.7%; Activity (NCI-H1975 [14]): 11.16%; Activity (NCI-H1975 [15]): 1.64%; pIC50 [16]: 5.29; Activity (NCI-H1975 [17]): 0.73%; Activity (NCI-H1975 [18]): 0.51%; Activity (NCI-H1975 [19]): 1.83% |
| Cc1nccc(Nc2ccc(NC(=O)C(c3ccccc3)N3Cc4cc(-c5ccc(N6CCNCC6)cc5)ccc4C3=O)cc2)n1 (configuration not stated) | 5.40 | 6.03 | 5.57 | – | 5.32 | – |
| O=C(Nc1nccs1)[C@@H](c1cc(F)ccc1O)N1Cc2ccc(-c3ccc(N4CCNCC4)cc3)cc2C1=O | – | – | 5.44 | – | – | pIC50 (NCI-H1975 [20]): 5.90 |
| Nc1nccc(Nc2cccc(NC(=O)C(c3ccccc3)N3Cc4cc(-c5ccc(N6CCNCC6)cc5)ccc4C3=O)c2)n1 (configuration not stated) | 5.66 | 5.84 | 5.38 | 6.05 | 5.49 | – |
| O=C(Nc1ccc(Nc2ccncn2)cc1)C(c1ccccc1)N1Cc2cc(-c3ccc(N4CCNCC4)cc3)ccc2C1=O (configuration not stated) | 5.29 | 5.59 | – | 5.61 | 5.00 | – |
| Nc1nccc(Nc2ccc(NC(=O)C(c3ccccc3)N3Cc4ccccc4C3=O)cc2)n1 (configuration not stated) | < 4.70 | < 5.00 | < 5.00 | < 5.00 | < 4.70 | – |
| Nc1nccc(Nc2ccc(NC(=O)C(c3ccccc3)N3Cc4ccc(-c5ccc(N6CCNCC6)cc5)cc4C3=O)cc2)n1 (configuration not stated) | 5.40 | 5.89 | 5.79 | 5.92 | 5.53 | – |
| CCN(CC)c1ccc(-c2ccc3c(c2)CN(C(C(=O)Nc2ccc(Nc4ccnc(N)n4)cc2)c2ccccc2)C3=O)cc1 (racemic) | 4.80 | 5.92 | – | 5.92 | 4.94 | – |
| Nc1cc(Nc2ccc(NC(=O)C(c3ccccc3)N3Cc4cc(-c5ccc(N6CCNCC6)cc5)ccc4C3=O)cc2)ncn1 (configuration not stated) | < 4.70 | 5.40 | < 5.00 | 5.82 | < 4.70 | – |
| C=CC(=O)Nc1cc(Nc2nccc(-c3cn(C)c4ccccc34)n2)c(OC)cc1N(C)CCN(C)C [OSIMERTINIB] | […] | 5.95 | […] | 6.12 | […] | pIC50 (BaF3 [12]): 8.05 |
| Nc1nccc(Nc2ccc(NC(=O)C(c3ccccc3)N3Cc4cc(-c5ccc(N6CCNCC6)cc5)ccc4C3=O)cc2)n1 (configuration not stated) | 6.28 | 6.01 | 5.83 | 6.16 | 5.49 | – |
| O=C(Nc1ccc(Nc2ccncc2)cc1)C(c1ccccc1)N1Cc2cc(-c3ccc(N4CCNCC4)cc3)ccc2C1=O (configuration not stated) | 5.28 | 5.98 | 5.57 | – | 5.42 | – |
| Nc1nccc(Nc2ccc(NC(=O)C(c3ccccc3)N3Cc4cc(-c5ccc(N6CCOCC6)cc5)ccc4C3=O)cc2)n1 (racemic) | < 4.70 | 5.71 | – | 5.71 | < 4.70 | – |
| Nc1nccc(Nc2ccc(NC(=O)C(c3ccccc3)N3Cc4cc(-c5ccc(N6CCNCC6)cc5)ccc4C3=O)cc2F)n1 (configuration not stated) | 5.34 | 5.85 | 5.82 | 5.76 | 5.11 | – |
| CN1CCN(c2ccc(-c3ccc4c(c3)CN([C@H](C(=O)Nc3ccc(Nc5ccnc(N)n5)cc3)c3ccccc3)C4=O)cc2)CC1 | 5.14 | 6.14 | 5.79 | 6.12 | 5.55 | pIC50 (BaF3 [12]): 6.35 |
| Nc1nccc(Nc2ccc(NC(=O)C(c3ccccc3)N3Cc4cc(-c5ccc(N6CCNCC6)cc5)ccc4C3=O)c(F)c2)n1 (configuration not stated) | 5.75 | 5.84 | 5.84 | 6.14 | 5.61 | – |
| CN1CCN(c2ccc(-c3ccc4c(c3)CN(C(C(=O)Nc3ccc(Nc5ccnc(N)n5)cc3)c3ccccc3)C4=O)cc2)CC1 (racemic) | 4.91 | 6.16 | 5.78 | 6.21 | – | pIC50 (BaF3 [12]): 5.82 |
| Nc1nccc(Nc2ccc(NC(=O)C(c3ccccc3)N3Cc4cc(-c5ccc(N6CCNCC6)cc5)ccc4C3=O)c(Cl)c2)n1 (configuration not stated) | 5.40 | 5.91 | 5.63 | 6.07 | 5.36 | – |
| COc1nccc(Nc2ccc(NC(=O)C(c3ccccc3)N3Cc4cc(-c5ccc(N6CCNCC6)cc5)ccc4C3=O)cc2)n1 (configuration not stated) | 5.31 | 6.32 | 5.58 | – | 5.44 | – |
